# Experiments:
# [1] = test system: HeLa lysate; assay: Translation of capped luciferase mRNA in HeLa lysate in vitro translation kit; type: biochemical; details: luciferase encoding mRNA with the 5′ end motif, luminescence, FIG. 5
# Description: HeLa cells are cultured in RPMI with 10% FBS at 37° C. under 5% CO2 atmosphere. Cells are plated into an appropriately sized well plate per manufacturer's recommended seeding conditions. After overnight incubation, cells are checked for monolayer formation and then transfected using a transfection agent such as MessengerMAX. Solution A: the desired amount of luciferase mRNA is diluted in OptiMEM and mixed with Solution B: MessengerMAX in OptiMEM. After mixing solutions A and B, the mixture is incubated at room temperature for 20 minutes, and then added dropwise to each well of cells. The cells are then incubated at 37° C. for 12-72 hours to allow for expression of mRNA into protein. Cells are harvested and prepared for measuring luciferase protein levels per Promega luciferase assay system protocol. […] For example, luciferase encoding mRNA with 5′ end region motif, 1007a, was added to a commercially available HeLa lysate in vitro translation kit to produce luciferase protein. Luciferase protein activity as measured by luminescent light production in the presence of a luciferin substrate, was measured with a luminescence-detecting plate reader. Relative light units measured per this assay are proportional to the amount of luciferase protein translated from mRNA. […]
# [2] = test system: RIG-I; assay: Immune stimulation of capped mRNA in HEK-Lucia RIG-I cell reporter model; type: cell-based
# Description: LNPs are prepared and administered in vivo to mice as in Example 11(A,B). Blood is collected at appropriate time points, typically at intervals between 1-48 hours post-dose and terminal end point, and processed to serum or plasma per techniques well known in the art. Serum or plasma cytokine and chemokine levels are measured using V-PLEX cytokine and chemokine detection kits. Cytokine and chemokine levels are compared to animals treated with buffer alone as well as pre-dose sampling of the treatment animals. In some instances, the immune stimulation of capped mRNA is assessed after in vitro transfection to reporter cell lines such as HEK-Lucia RIG-I cell reporter model, which produces luciferase signal in the presence of IFN-stimulated response elements such as uncapped mRNA. This cell model is cultured and transfected as described in Example 7, and luciferase activity is measured using a luciferase activity kit and plate reader. It is known in the art that uncapped mRNA produces a RIG-I-dependent IFN immune response, and capped mRNA lessens this immune stimulation. […] The results of this example were compared using mRNA made with a commercially available 5′ end initiator, 1002a, as a reference.
smiles,measurement,setting,value
"COC1C(OP([O-])(=S)OCC2OC(n3cnc4c(=O)[nH]c(N)nc43)C(O)C2O)C(COP(=O)(O)OP(=O)(O)OP(=O)(O)OCC2OC(n3c[n+](C)c4c(=O)[nH]c(N)nc43)C(O)C2O)OC1n1cnc2c(N)ncnc21 (stereo not drawn) [1007a, m^7G(ppp)Am(ps)G]",luciferase activity relative to mRNA with initiator 1002a,[1],around 2 x
same,RIG-I activity as compared to uncapped mRNA,"[2]; mRNA with the 5′ end motif, FIG. 8",reduced
same,RIG-I activation as a result of the chemical modifications to the cap structure,[2]; reference mRNA made with 1002a,did not appear to increase

# Source: patent US12264175B2, “Compositions and methods for capping RNAS” (Verve Therapeutics, Inc., priority 2020, dated 2025)
